This passage reports effect on replication results from patent US8057806B2 (priority 2000, dated 2011).

The test system of the assay is M2 mutant viruses. It is filed as cell-based, influenza A virus.

“Also recorded” adds a separate entry of the source.

For the compound `NC12CC3CC(CC(C3)C1)C2` [amantadine], the effect on replication result is “either not affected or inhibited only slightly; also recorded: Substantial inhibition”.
